In ChEMBL document CHEMBL1201862, “PubChem BioAssay data set” (2004):
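Briefly, cells in 96-well plates were exposed to five compound concentrations for 48 h, and endpoints were estimated by linear interpolation. The concentration for 50% growth inhibition is given as GI50.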 Calls of active or inactive are those of the source. Cut-off read from the data, not from the text of the source: active = GI50 up to about 1.1 µM and inactive = higher.

What was measured:
Assay in all cases: NCI tumour cell line growth inhibition, 48 h
[1] = test system: DU-145
[2] = test system: Hs-578T
[3] = test system: T47D
[4] = test system: BT-549
[5] = test system: DMS-273
[6] = test system: XF498
[7] = test system: HOP-18
[8] = test system: DMS-114

SMILES | GI50 [1] | GI50 [2] | GI50 [3] | GI50 [4] | GI50 [5] | GI50 [6] | GI50 [7] | GI50 [8]
COc1cc2c(c(OC)c1OC)-c1ccc(SC)cc1C(=O)CC2 | < 0.01 µM (active) | < 0.01 µM (active) | > 100 µM (inactive) | > 100 µM (inactive) | – | – | – | –
CC(=O)NC1=C(OS(=O)(=O)c2ccc(C)cc2)CN(C)C1=O | 4.2 µM (inactive) | 4.03 µM (inactive) | 2.12 µM (inactive) | 3.09 µM (inactive) | – | – | – | –
CN(Cc1cccc2ccccc12)Cc1cccc2ccccc12 | 54 µM (inactive) | 44.3 µM (inactive) | 21 µM (inactive) | 56.4 µM (inactive) | – | – | – | –
Nc1nc(N)c2c(Cl)c(CNc3ccc(C(=O)NC(CC(=O)O)C(=O)O)cc3)ccc2n1 (stereo unspecified) | < 0.01 µM (active) | 22.8 µM (inactive) | > 100 µM (inactive) | < 0.01 µM (active) | – | – | – | –
O=[N+]([O-])/C=C/c1c(Cl)cccc1Cl | 9.06 µM (inactive) | 9.44 µM (inactive) | 2.06 µM (inactive) | 2.01 µM (inactive) | – | – | – | –
O=C1c2ccccc2C(=O)N1c1ccc(Cc2ccc(N3C(=O)c4ccccc4C3=O)cc2)cc1 | > 100 µM (inactive) | > 100 µM (inactive) | > 100 µM (inactive) | > 100 µM (inactive) | – | – | – | –
c1csc(C(NC2=NCCO2)C2CC2)c1 (stereo unspecified) | – | > 100 µM (inactive) | > 100 µM (inactive) | – | – | – | – | –
CC(=O)c1c(-c2cccc3ccccc23)c(C#N)c(=S)n(C2OC(CO)C(O)C(O)C2O)c1C (stereo unspecified) | > 100 µM (inactive) | > 100 µM (inactive) | – | > 100 µM (inactive) | – | – | – | –
COC(=O)c1s/c(=N\C(=S)N(C)C)n(-c2ccc(Cl)cc2)c1C(=O)OC | – | – | – | – | > 100 µM (inactive) | – | – | –
CCC1C(=O)OCc2c1cc1n(c2=O)C(CC)c2c-1nc1ccccc1c2Cl (stereo unspecified) | – | – | – | – | 7.85 µM (inactive) | 24.8 µM (inactive) | 20.3 µM (inactive) | –
c1cc2nnnn2nc1N1CCCC1 | > 100 µM (inactive) | – | – | – | – | – | – | –
CCOC(=O)c1cc2c(ccc3cc(C(=O)OCC)[nH]c32)[nH]1 | 35.2 µM (inactive) | 17.2 µM (inactive) | 38 µM (inactive) | 52.6 µM (inactive) | – | – | – | –
CCc1cc2c(c3c1CCCC3)CC1(Cc3ccc(C(=O)OC)cc3C1)C2 (stereo unspecified) | > 100 µM (inactive) | 60.3 µM (inactive) | 46.8 µM (inactive) | > 100 µM (inactive) | – | – | – | –
CCOc1ccc(NC(=O)CC2SC(N)=NC2=O)cc1 (stereo unspecified) | – | – | – | – | – | > 100 µM (inactive) | – | > 100 µM (inactive)
C[N+](C)(C)C.FC(F)(F)C1(C(F)(F)F)O[SiH-]2(OC(C(F)(F)F)(C(F)(F)F)c3ccccc32)c2ccccc21 | – | – | – | – | 20.1 µM (inactive) | – | 36.9 µM (inactive) | 14.1 µM (inactive)
CCOc1cc(NC(C)=O)ccc1C(=O)NN1C(=O)/C(=C/c2cc(OC)c(OC)c(OC)c2)N=C1c1ccccc1 | – | > 100 µM (inactive) | – | 16.3 µM (inactive) | – | – | – | –
C=C1c2nc3ccccc3n2C=C(c2ccc(OC)cc2)N1c1ccc(OCCN2CCCCC2)cc1 | 13.1 µM (inactive) | 11.2 µM (inactive) | 26.6 µM (inactive) | 11.7 µM (inactive) | – | – | – | –
CCN(CC)C(=S)SS(=O)(=O)c1cccc(N)c1 | > 100 µM (inactive) | > 100 µM (inactive) | > 100 µM (inactive) | > 100 µM (inactive) | – | – | – | –
CCNC(C)Cc1ccccc1 (stereo unspecified) | – | – | – | – | > 100 µM (inactive) | – | > 100 µM (inactive) | > 100 µM (inactive)
Cc1ccc2nc(SCC(=O)N/N=C3\C(=O)Nc4ccccc43)n(-c3ccccc3)c(=O)c2c1 | 13.4 µM (inactive) | 17.8 µM (inactive) | 15.5 µM (inactive) | – | – | – | – | –
NC(=O)N/N=C1/CCC(O)CC1CC(=O)O (stereo unspecified) | > 100 µM (inactive) | > 100 µM (inactive) | > 100 µM (inactive) | > 100 µM (inactive) | – | – | – | –
Cc1ccc(C2=Nn3c(nc4sc(-c5ccccc5)cc4c3=O)SC2)cc1 | > 100 µM (inactive) | > 100 µM (inactive) | > 100 µM (inactive) | > 100 µM (inactive) | – | – | – | –
CC(C)NC(=O)OCc1c(COC(=O)NC(C)C)n(C)c2c1ccc1sccc12 | 6.78 µM (inactive) | 13.6 µM (inactive) | 17.3 µM (inactive) | 2.96 µM (inactive) | – | – | – | –
CCOC(=O)c1cc2c([nH]1)c(O)cc1c2ccn1Cc1ccccc1 | 17.8 µM (inactive) | 19.4 µM (inactive) | 2.85 µM (inactive) | 17.8 µM (inactive) | – | – | – | –
Cc1ccc(NC=O)c(-c2c(N)[nH]c(=S)[nH]c2=O)c1 | > 100 µM (inactive) | > 100 µM (inactive) | > 100 µM (inactive) | > 100 µM (inactive) | – | – | – | –
N[C@@H]1C[C@H](N)c2c(Cl)sc(Cl)c21 | > 100 µM (inactive) | – | > 100 µM (inactive) | > 100 µM (inactive) | – | – | – | –
CC(C)(C)C1=CC(=N/N=c2\scc(-c3ccccc3)n2Cc2ccccc2)C=C(C(C)(C)C)C1=O | – | – | – | – | > 100 µM (inactive) | > 100 µM (inactive) | – | > 100 µM (inactive)
CC(=O)OC12c3ccccc3C1CCCC21OCCCO1 (stereo unspecified) | – | – | – | – | > 100 µM (inactive) | – | > 100 µM (inactive) | > 100 µM (inactive)
COc1cccc(/C=N/NC(=O)CN(C)C)c1O | > 100 µM (inactive) | > 100 µM (inactive) | > 100 µM (inactive) | > 100 µM (inactive) | – | – | – | –
